Assays:
[1] = system: rice plants; assay: Field trials 2012-2015: tolerance of rice plants to heat stress (eleven trials); assay type: in vivo, Oryza sativa L.
Experimental: Field trials were setup during the hot season in India to test the effect of treatment with the compound of formula (Ia) on tolerance of rice plants to heat stress.
Trials were conducted in 2012, 2013, 2014, and 2015 in the Tamil Nadu rice production area (India) at the following sites: Kelamoor (lat. 12.42, long. 79.81), Kokkur (lat. 11.02, long. 79.32), Nachinargudi (lat. 11.01, long. 79.3), Velamoor (lat. 12.41, long. 79.8), Kumbakonam (lat. 10.97, long. 79.42) and Ramapuram (lat. 12.43, long. 79.83). The test sites had similar soil chemical properties, with an average soil pH of 6.6.
Rice (Oryza sativa L.) of the local varieties ADT43, ADT45 and NK5251 were mechanically transplanted at four plants per hill with a plant spacing of 16 cm and a row spacing of 30 cm. All trials were performed in good level of water management. Fertilizer was applied in accordance with the best local practice across the trial area.
Commercial treated seeds (no neonicotinoids as seed treatments) were used. Weed control was according to the best local practice in order to provide excellent weed control. Foliar fungicides and insecticides were applied according to common practice (no products that contain neonicotinoids or strobilurins).
The trial design was a randomized bloc design. Plot size was 40 m^2 (4 m width [12 rows] by 10 m row length). Each trial had four replicates. In total, eleven trials were conducted.
The compound of formula (Ia) was applied at a rate of 10 g ai/ha with small-plot hand-held boom sprayer. Application of the compound was as broadcast foliar spray in close proximity to leaf/canopy surface (25-40 cm distance from the crop). The used spray volumes were between 250 L/ha and 500 L/ha. Application was done either at panicle initiation (BBCH 30), at panicle formation (BBCH 32), at spikelet differentiation (BBCH 35), at meiosis (BBCH 39) or at heading (BBCH 51). In some experiments, the compound was applied twice (2×10 g ai/ha) at consecutive growth stages (i.e., BBCH 30+32, BBCH 32+35, BBCH 35+39, and BBCH 39+51).
Temperature was recorded nearby the trial sites. During and up to 14 days after the critical growth stages (i.e. from panicle initiation until heading) the mean daily minimum temperature was 25.1° C. (in the range of 22.6° C. to 27.1° C.) and the mean daily maximum temperature was 35.5° C. (in the range of 29.0 to 38.9° C.).
Tolerance to heat stress was assessed by measuring the following yield components: number of panicles per area, number of grains per panicle, percentage of ripened (filled) grains, number of tillers per area, percentage of productive tillers, grain yield per area at 14% moisture and thousand grain weight (TGVV).
The data in Tables 1 to 3 represent averages of the results from all eleven independent field trials, expressed as a percentage compared to the untreated control. The percentage increase or decrease was calculated for each trial relative to the untreated control for that trial, prior to calculating the mean percentage change across all 11 trials.

[2] = system: rice plants; assay: Further field trials 2016, rice variety ADT45 (7 trials); assay type: in vivo, Oryza sativa L.; conditions: 10 g AI/ha; for Average yield increase compared to UTC (%): 7 trials 2016; for Yield at 14% MC (kg/ha): 7 trials 2016, mean daily min 25.13° C., max 34.13° C., UTC 6512
Experimental: Rice (Oryza sativa L.) of the local varieties ADT43, ADT45 and NK5251 were mechanically transplanted at four plants per hill with a plant spacing of 16 cm and a row spacing of 30 cm. All trials were performed in good level of water management. Fertilizer was applied in accordance with the best local practice across the trial area. Commercial treated seeds (no neonicotinoids as seed treatments) were used. Weed control was according to the best local practice in order to provide excellent weed control. Foliar fungicides and insecticides were applied according to common practice (no products that contain neonicotinoids or strobilurins). The trial design was a randomized bloc design. Plot size was 40 m^2 (4 m width [12 rows] by 10 m row length). Each trial had four replicates. In total, eleven trials were conducted. The compound of formula (Ia) was applied at a rate of 10 g ai/ha with small-plot hand-held boom sprayer. Application of the compound was as broadcast foliar spray in close proximity to leaf/canopy surface (25-40 cm distance from the crop). The used spray volumes were between 250 L/ha and 500 L/ha. Application was done either at panicle initiation (BBCH 30), at panicle formation (BBCH 32), at spikelet differentiation (BBCH 35), at meiosis (BBCH 39) or at heading (BBCH 51). In some experiments, the compound was applied twice (2×10 g ai/ha) at consecutive growth stages (i.e., BBCH 30+32, BBCH 32+35, BBCH 35+39, and BBCH 39+51). Tolerance to heat stress was assessed by measuring the following yield components: number of panicles per area, number of grains per panicle, percentage of ripened (filled) grains, number of tillers per area, percentage of productive tillers, grain yield per area at 14% moisture and thousand grain weight (TGVV). Further trials were conducted in the Tamil Nadu rice production area (India) in 2016 using the protocol as described above using rice variety ADT45, with treatment timings of panicle initiation (BBCH 30), panicle formation (BBCH 32), spikelet differentiation (BBCH 35) and meiosis (BBCH 39) only. The compound of formula (Ia) was applied at a rate of 10 g Al/ha. Grain yield was measured at 14% moisture content (MC).

[3] = BBCH 30 at application, 10 g ai/ha foliar spray, mean of 11 trials, mean daily min 25.1° C., max 35.5° C.
[4] = BBCH 32 at application, 10 g ai/ha foliar spray, mean of 11 trials, mean daily min 25.1° C., max 35.5° C.
[5] = BBCH 35 at application, 10 g ai/ha foliar spray, mean of 11 trials, mean daily min 25.1° C., max 35.5° C.
[6] = BBCH 39 at application, 10 g ai/ha foliar spray, mean of 11 trials, mean daily min 25.1° C., max 35.5° C.
[7] = BBCH 51 at application, 10 g ai/ha foliar spray, mean of 11 trials, mean daily min 25.1° C., max 35.5° C.
[8] = maximum air temperature 35.1-36 ° C. during five days after application, applied between BBCH 30 and BBCH 51, 10 g ai/ha
[9] = maximum air temperature 36.1-37 ° C. during five days after application, applied between BBCH 30 and BBCH 51, 10 g ai/ha
[10] = maximum air temperature >37 ° C. during five days after application, applied between BBCH 30 and BBCH 51, 10 g ai/ha
[11] = maximum air temperature ≤35 ° C. during five days after application, applied between BBCH 30 and BBCH 51, 10 g ai/ha

## COc1cccc(Nc2nc(F)nc3[nH]cnc23)c1 [formula (Ia)]
[1]; [3]
  Empty spikelets (% of UTC): −7.5 % of UTC
  TGW (% of UTC), thousand grain weight: +2.5 % of UTC
[1]; BBCH 30 at application, 10 g ai/ha foliar spray, mean of 11 trials, mean daily min 25.1° C., max 35.5° C. during 14 days after application
  Grain yield (% of UTC): +6.0 % of UTC
[1]; BBCH 30 at application, maximum air temperature >36° C. during five days after application, 10 g ai/ha
  grain yield (as percent change compared to untreated controls): +7.5%
[1]; BBCH 30 at application, maximum air temperature ≤36° C. during five days after application, 10 g ai/ha
  grain yield (as percent change compared to untreated controls): +1.6%
[1]; [4]
  Empty spikelets (% of UTC): −9.3 % of UTC
  Grain yield (% of UTC): +7.4 % of UTC
  TGW (% of UTC), thousand grain weight: +2.2 % of UTC
[1]; BBCH 32 at application, maximum air temperature >36° C. during five days after application, 10 g ai/ha
  grain yield (as percent change compared to untreated controls): +9.0%
[1]; BBCH 32 at application, maximum air temperature ≤36° C. during five days after application, 10 g ai/ha
  grain yield (as percent change compared to untreated controls): +0.7%
[1]; [5]
  Empty spikelets (% of UTC): −3.8 % of UTC
  Grain yield (% of UTC): +4.7 % of UTC
  TGW (% of UTC), thousand grain weight: +1.8 % of UTC
[1]; BBCH 35 at application, maximum air temperature >36° C. during five days after application, 10 g ai/ha
  grain yield (as percent change compared to untreated controls): +5.4%
[1]; BBCH 35 at application, maximum air temperature ≤36° C. during five days after application, 10 g ai/ha
  grain yield (as percent change compared to untreated controls): +1.8%
[1]; [6]
  Empty spikelets (% of UTC): −6.6 % of UTC
  Grain yield (% of UTC): +4.9 % of UTC
  TGW (% of UTC), thousand grain weight: +1.6 % of UTC
[1]; BBCH 39 at application, maximum air temperature >36° C. during five days after application, 10 g ai/ha
  grain yield (as percent change compared to untreated controls): +5.1%
[1]; BBCH 39 at application, maximum air temperature ≤36° C. during five days after application, 10 g ai/ha
  grain yield (as percent change compared to untreated controls): +2.6%
[1]; [7]
  Empty spikelets (% of UTC): −3.5 % of UTC
  Grain yield (% of UTC): +2.8 % of UTC
  TGW (% of UTC), thousand grain weight: +2.0 % of UTC
[1]; BBCH 51 at application, maximum air temperature >36° C. during five days after application, 10 g ai/ha
  grain yield (as percent change compared to untreated controls): +3.6%
[1]; BBCH 51 at application, maximum air temperature ≤36° C. during five days after application, 10 g ai/ha
  grain yield (as percent change compared to untreated controls): −0.7%
[1]; applied between BBCH 30 (panicle initiation) and BBCH 51 (heading)
  grain yield, effect in words: an increase of grain yield was achieved
[1]; daily maximum temperature above 36° C. at least one day after application but within 5 days after application
  effect of treatment on rice grain yield, in words: clear beneficial effect
[1]; [8]
  Grain yield (% of UTC): +1.1 % of UTC
  TGW (% of UTC): +2.3 % of UTC
[1]; [9]
  Grain yield (% of UTC): +5.5 % of UTC
  TGW (% of UTC): +2.2 % of UTC
[1]; [10]
  Grain yield (% of UTC): +6.6 % of UTC
  TGW (% of UTC): +1.8 % of UTC
[1]; [11]
  Grain yield (% of UTC): +0.9 % of UTC
  TGW (% of UTC): +1.4 % of UTC
[1]; plants at growth stages from panicle initiation (BBCH 30) to heading (BBCH 51) at the time of treatment
  heat stress protection, in words: heat stress protection was achieved
[2]; BBCH 30 at application
  Average yield increase compared to UTC (%): +3.5%
  Yield at 14% MC (kg/ha): 6741 kg/ha
[2]; BBCH 32 at application
  Average yield increase compared to UTC (%): +4.7%
  Yield at 14% MC (kg/ha): 6820 kg/ha
[2]; BBCH 35 at application
  Average yield increase compared to UTC (%): +6.4%
  Yield at 14% MC (kg/ha): 6931 kg/ha
[2]; BBCH 39 at application
  Average yield increase compared to UTC (%): +3.6%
  Yield at 14% MC (kg/ha): 6757 kg/ha
